Results reported in PMC3746989 (ACS medicinal chemistry letters, 2013).

How the values were obtained:
ScN2a-cl3 cells = assay: Cell viability / compound toxicity with fluorescent probe calcein-AM; format: cell-based, mouse
[1] = In vivo mouse single-dose PK, brain and plasma exposure; details: for brain exposure / drug levels in brain: mice, oral dosing
[2] = tested on: PrP^Sc in RML prion-infected mouse neuroblastoma (ScN2a-cl3) cells; format: cell-based; details: for antiprion activity: relative to the 4-bromophenyl amide 10
[3] = mouse, oral 10 mg/kg, brain, relative to 21

SMILES | Calcein AM LD50 (ScN2a-cl3 cells) | metabolic stability in hepatic microsomal preparations | brain exposure / drug levels in brain [1] | further results
CC(C)N1CCN(c2ccc(NC(=O)c3ccc(-c4ccccn4)cc3)cn2)CC1 [Compound 25] | >10,000 nM | – | – | –
CCN1CCN(c2ccc(NC(=O)c3ccc(-c4ccncc4)cc3)cc2)CC1 [Compound 22] | >10,000 nM | – | – | –
CC(C)N1CCN(c2ccc(NC(=O)c3ccc(-c4ccccn4)cc3)nc2)CC1 [Compound 24] | >10,000 nM | excellent metabolic stability | excellent drug levels in the brains | –
CC(C)N1CCN(c2ccc(NC(=O)c3ccc(-c4ccccc4)cc3)cc2)CC1 [Compound 17] | >10,000 nM | excellent metabolic stability | excellent drug levels in the brains | –
CN1CCN(c2ccc(NC(=O)c3ccc(-c4ccccc4)cc3)cc2)CC1 [Compound 15] | >5000 nM | – | – | fold increase in antiprion potency over compound 7 ([2]; relative to original lead 7): 4 fold
CC(=O)c1ccc(NC(=O)c2ccc(-c3ccccc3)cc2)cc1 [Compound 14] | – | – | – | fold improvement in potency, 14 versus 6 [2]: 10 fold
CCN1CCN(c2ccc(NC(=O)c3ccc(-c4cccnc4)cc3)cc2)CC1 [Compound 21] | >10,000 nM | – | – | –
CC(C)N1CCN(c2ccc(NC(=O)c3ccc(-c4ccccn4)cc3)cc2F)CC1 [Compound 27] | >10,000 nM | excellent metabolic stability | excellent drug levels in the brains | –
CC(C)N1CCN(c2ccc(NC(=O)c3ccc(-c4ccccn4)cc3)c(F)c2)CC1 [Compound 26] | >10,000 nM | excellent metabolic stability | excellent drug levels in the brains | –
CCOc1cccc(C(=O)Nc2ccc(N3CCN(C)CC3)cc2)c1 [Compound 8] | – | – | – | antiprion activity [2]: inactivity
CC(C)N1CCN(c2ccc(NC(=O)c3ccc(-c4ccccn4)cc3)cc2)CC1 [Compound 23] | >10,000 nM | – | much lower brain exposure than either 16 or 20 | –
CCN1CCN(c2ccc(NC(=O)c3ccc(-c4ccccn4)cc3)cc2)CC1 [Compound 20] | >10,000 nM | – | excellent drug levels in the brains | fold higher brain AUC than 21 [1, 3]: > 7 fold; fold higher brain Cmax than 21 [1, 3]: > 4 fold
CN1CCN(c2ccc(NC(=O)c3cccc(Br)c3)cc2)CC1 [Compound 9] | – | – | – | antiprion activity [2]: inactivity
